ChEMBL document CHEMBL5055644, “Cysteine derivatives as acetyl lysine mimics to inhibit zinc-dependent histone deacetylases for treating cancer” (Eur J Med Chem, 2021)
Activity calls are given as the source filed them. No cut-off for these calls is given here.

What was measured:
MCF7 = test: cells; type: functional; conditions: Homo sapiens, time 48 hrs
Description: Antiproliferative activity against human MCF-7 cells assessed as inhibition of cell proliferation incubated for 48 hrs by CCK8 assay

Histone deacetylase 9 = Histone deacetylase 9 (Homo sapiens, UniProt Q9UKV0); test: Inhibition of human C-terminal His-tagged HDAC9 (604 to 1066 residues) expressed in baculovirus infected Sf9 insect cells using Boc-Lys(acetyl)-AMC as fluorogenic substrate measured after 1 hr by flourescence plate reader method
Histone deacetylase 5 = Histone deacetylase 5 (Homo sapiens, UniProt Q9UQL6); test: Inhibition of human HDAC5 using Boc-Lys(acetyl)-AMC as fluorogenic substrate measured after 1 hr by flourescence plate reader method
[1] = molecular target: T1, Class 1 histone deacetylase (Homo sapiens) (UniProt Q13547+O15379+Q92769+Q9BY41); test: Inhibition of class 1 HDAC in human MCF7 cells assessed as increase in histone H4 acetylation at 10 uM measured after 8 hrs by Western blot analysis; type: cell-based
HepG2 = test: cells; type: functional; conditions: Homo sapiens, time 48 hrs
Description: Antiproliferative activity against human HepG2 cells assessed as inhibition of cell proliferation incubated for 48 hrs by CCK8 assay

[2] = molecular target: T2, Protein deacetylase HDAC6 (Homo sapiens, UniProt Q9UBN7); test: Inhibition of HDAC6 (unknown origin) using Boc-Lys(acetyl)-AMC as fluorogenic substrate measured after 1 hr by flourescence plate reader method
T2 sequence (Q9UBN7 whole entry): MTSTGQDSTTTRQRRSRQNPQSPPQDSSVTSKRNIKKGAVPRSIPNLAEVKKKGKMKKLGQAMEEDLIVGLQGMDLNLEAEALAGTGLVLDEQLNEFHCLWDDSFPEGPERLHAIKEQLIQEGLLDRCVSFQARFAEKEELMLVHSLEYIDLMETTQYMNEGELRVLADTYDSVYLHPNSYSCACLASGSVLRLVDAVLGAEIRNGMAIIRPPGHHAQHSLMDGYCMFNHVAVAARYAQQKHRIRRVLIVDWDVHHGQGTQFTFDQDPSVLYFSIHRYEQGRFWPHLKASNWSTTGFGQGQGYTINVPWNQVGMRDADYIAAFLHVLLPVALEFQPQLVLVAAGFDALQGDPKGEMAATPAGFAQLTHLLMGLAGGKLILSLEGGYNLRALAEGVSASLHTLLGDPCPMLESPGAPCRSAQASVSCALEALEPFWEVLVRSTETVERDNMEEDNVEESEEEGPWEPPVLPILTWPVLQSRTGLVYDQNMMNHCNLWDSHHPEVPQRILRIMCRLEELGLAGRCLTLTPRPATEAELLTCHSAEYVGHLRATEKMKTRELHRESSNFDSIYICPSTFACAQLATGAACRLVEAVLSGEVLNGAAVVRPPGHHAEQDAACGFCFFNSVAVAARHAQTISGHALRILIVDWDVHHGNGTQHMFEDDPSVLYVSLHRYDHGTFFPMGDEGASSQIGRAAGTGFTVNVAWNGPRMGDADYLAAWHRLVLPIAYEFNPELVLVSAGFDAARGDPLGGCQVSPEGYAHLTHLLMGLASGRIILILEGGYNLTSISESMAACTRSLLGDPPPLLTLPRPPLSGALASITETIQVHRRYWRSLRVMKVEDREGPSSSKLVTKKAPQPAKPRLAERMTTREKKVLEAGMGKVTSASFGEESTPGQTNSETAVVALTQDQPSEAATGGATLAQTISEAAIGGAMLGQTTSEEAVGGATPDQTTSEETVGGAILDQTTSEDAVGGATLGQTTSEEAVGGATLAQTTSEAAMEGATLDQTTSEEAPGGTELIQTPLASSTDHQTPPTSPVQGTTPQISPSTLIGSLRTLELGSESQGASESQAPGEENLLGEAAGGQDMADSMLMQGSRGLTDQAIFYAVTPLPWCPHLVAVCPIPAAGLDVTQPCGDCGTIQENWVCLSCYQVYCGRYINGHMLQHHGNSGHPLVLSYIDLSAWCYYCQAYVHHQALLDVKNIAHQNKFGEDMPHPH

[3] = molecular target: T3, Protein deacetylase HDAC6 (Homo sapiens) (UniProt Q9UBN7); test: Inhibition of HDAC6 in human MCF7 cells assessed as increase in alpha tubulin acetylation at 10 uM measured after 8 hrs by Western blot analysis; type: cell-based
T3 sequence (whole entry): T2 sequence (Q9UBN7 whole entry)

HeLa = test: cells; type: functional; conditions: Homo sapiens, time 48 hrs
Description: Antiproliferative activity against human HeLa cells assessed as inhibition of cell proliferation incubated for 48 hrs by CCK8 assay

[4] = molecular target: T1, Class 1 histone deacetylase (Homo sapiens); test: Inhibition of class 1 HDAC in human MCF7 cells assessed as increase in histone H3 acetylation at 10 uM measured after 8 hrs by Western blot analysis; type: cell-based
Histone deacetylase 8 = molecular target: T4, Histone deacetylase 8 (Homo sapiens, UniProt Q9BY41); test: Inhibition of full length human C-terminal His-tagged HDAC8 expressed in baculovirus infected Sf9 insect cells using Boc-Lys(acetyl)-AMC as fluorogenic substrate measured after 1 hr by flourescence plate reader method
T4 sequence (Q9BY41 whole entry): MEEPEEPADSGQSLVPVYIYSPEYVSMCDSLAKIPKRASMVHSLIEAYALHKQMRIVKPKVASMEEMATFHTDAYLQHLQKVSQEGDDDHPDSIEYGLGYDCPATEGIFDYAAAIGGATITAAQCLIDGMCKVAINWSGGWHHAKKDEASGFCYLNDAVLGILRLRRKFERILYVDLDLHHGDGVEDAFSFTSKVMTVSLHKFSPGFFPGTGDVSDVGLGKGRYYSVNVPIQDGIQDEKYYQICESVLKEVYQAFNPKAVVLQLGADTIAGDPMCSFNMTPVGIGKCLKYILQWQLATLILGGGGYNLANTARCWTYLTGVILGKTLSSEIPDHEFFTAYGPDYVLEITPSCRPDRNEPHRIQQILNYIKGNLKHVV

Histone deacetylase 4 = Histone deacetylase 4 (Homo sapiens, UniProt P56524); test: Inhibition of human HDAC4 using Boc-Lys(acetyl)-AMC as fluorogenic substrate measured after 1 hr by flourescence plate reader method
Histone deacetylase = test: Inhibition of HDAC in human HeLa nuclear extract using Boc-Lys(acetyl)-AMC as fluorogenic substrate measured after 1 hr by flourescence plate reader method; type: subcellular, Nucleus
K562 = test: cells; type: functional; conditions: Homo sapiens, time 48 hrs
Description: Antiproliferative activity against human K562 cells assessed as inhibition of cell proliferation incubated for 48 hrs by CCK8 assay

Histone deacetylase 1 = Histone deacetylase 1 (Homo sapiens, UniProt Q13547); test: Inhibition of HDAC1 (unknown origin) using Boc-Lys(acetyl)-AMC as fluorogenic substrate measured after 1 hr by flourescence plate reader method
Chain of Histone deacetylase 1 (Q13547 whole entry): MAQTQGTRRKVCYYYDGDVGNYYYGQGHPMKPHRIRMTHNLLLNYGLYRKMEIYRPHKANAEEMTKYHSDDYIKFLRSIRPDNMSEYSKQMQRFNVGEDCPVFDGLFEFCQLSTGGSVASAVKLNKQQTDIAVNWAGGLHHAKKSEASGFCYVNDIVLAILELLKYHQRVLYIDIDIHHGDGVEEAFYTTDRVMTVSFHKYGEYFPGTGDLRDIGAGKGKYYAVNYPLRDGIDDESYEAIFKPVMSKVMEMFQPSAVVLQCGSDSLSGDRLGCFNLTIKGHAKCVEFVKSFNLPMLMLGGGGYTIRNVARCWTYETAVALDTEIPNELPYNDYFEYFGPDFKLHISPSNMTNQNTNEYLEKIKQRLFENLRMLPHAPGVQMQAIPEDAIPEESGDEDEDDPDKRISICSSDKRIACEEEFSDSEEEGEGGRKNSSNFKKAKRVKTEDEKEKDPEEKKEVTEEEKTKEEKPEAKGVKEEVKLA

Chain of Histone deacetylase 9 (Q9UKV0 whole entry, the tested form may be a part): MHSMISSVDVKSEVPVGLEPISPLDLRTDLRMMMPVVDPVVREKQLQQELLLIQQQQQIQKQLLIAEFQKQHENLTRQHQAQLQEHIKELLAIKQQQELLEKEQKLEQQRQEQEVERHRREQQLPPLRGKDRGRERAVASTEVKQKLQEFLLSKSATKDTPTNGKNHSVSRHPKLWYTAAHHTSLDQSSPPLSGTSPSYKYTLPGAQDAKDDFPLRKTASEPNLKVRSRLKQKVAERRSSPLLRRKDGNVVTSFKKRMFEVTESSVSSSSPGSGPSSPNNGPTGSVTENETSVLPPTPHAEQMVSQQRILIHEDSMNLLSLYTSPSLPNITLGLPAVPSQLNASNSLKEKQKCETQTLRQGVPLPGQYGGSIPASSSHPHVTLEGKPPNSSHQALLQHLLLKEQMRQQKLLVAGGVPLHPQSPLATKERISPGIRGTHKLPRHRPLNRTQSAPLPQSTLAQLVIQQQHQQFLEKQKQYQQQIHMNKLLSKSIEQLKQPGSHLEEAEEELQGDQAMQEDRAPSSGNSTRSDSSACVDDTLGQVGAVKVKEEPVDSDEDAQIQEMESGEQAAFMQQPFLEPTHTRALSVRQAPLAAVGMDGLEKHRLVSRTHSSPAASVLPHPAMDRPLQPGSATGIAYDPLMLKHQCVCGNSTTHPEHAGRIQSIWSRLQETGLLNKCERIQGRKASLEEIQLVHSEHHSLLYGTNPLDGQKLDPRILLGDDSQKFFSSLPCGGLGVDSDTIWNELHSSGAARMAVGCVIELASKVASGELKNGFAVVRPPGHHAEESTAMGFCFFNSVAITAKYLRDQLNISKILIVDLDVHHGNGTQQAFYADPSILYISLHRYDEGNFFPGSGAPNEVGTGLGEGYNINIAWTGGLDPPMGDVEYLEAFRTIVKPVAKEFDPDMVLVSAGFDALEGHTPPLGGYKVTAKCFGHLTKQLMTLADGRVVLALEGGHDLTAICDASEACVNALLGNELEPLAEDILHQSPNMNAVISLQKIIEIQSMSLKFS
Chain of Histone deacetylase 5 (Q9UQL6 whole entry): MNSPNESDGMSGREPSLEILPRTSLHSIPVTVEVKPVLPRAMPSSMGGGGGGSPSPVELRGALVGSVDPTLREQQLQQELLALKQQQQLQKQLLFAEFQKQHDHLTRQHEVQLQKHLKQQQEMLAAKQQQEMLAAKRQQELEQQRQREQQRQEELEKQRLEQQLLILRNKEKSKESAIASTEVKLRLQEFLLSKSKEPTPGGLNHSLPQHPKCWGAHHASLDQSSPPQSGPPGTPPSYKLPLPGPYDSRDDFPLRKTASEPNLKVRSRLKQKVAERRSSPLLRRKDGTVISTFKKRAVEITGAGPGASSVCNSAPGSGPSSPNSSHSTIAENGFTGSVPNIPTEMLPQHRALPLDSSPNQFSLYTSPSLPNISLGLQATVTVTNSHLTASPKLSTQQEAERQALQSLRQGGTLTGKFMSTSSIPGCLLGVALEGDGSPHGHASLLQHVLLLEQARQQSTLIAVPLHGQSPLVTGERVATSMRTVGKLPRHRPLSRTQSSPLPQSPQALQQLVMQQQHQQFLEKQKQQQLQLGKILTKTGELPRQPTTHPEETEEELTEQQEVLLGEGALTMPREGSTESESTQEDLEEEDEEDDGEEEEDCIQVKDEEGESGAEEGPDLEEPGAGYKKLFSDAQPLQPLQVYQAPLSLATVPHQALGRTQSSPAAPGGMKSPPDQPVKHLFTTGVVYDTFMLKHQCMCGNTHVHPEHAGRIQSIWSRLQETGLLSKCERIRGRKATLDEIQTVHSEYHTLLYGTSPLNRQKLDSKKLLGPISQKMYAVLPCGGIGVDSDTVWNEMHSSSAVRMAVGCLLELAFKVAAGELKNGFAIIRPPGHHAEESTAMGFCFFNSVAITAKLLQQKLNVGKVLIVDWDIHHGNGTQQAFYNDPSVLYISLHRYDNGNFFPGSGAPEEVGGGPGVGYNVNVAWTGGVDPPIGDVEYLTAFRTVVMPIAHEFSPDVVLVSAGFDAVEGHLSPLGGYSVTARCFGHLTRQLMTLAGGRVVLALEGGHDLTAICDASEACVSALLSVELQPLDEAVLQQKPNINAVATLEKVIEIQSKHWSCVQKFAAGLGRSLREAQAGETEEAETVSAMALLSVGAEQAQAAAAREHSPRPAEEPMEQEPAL
Chain of Histone deacetylase 4 (P56524 whole entry): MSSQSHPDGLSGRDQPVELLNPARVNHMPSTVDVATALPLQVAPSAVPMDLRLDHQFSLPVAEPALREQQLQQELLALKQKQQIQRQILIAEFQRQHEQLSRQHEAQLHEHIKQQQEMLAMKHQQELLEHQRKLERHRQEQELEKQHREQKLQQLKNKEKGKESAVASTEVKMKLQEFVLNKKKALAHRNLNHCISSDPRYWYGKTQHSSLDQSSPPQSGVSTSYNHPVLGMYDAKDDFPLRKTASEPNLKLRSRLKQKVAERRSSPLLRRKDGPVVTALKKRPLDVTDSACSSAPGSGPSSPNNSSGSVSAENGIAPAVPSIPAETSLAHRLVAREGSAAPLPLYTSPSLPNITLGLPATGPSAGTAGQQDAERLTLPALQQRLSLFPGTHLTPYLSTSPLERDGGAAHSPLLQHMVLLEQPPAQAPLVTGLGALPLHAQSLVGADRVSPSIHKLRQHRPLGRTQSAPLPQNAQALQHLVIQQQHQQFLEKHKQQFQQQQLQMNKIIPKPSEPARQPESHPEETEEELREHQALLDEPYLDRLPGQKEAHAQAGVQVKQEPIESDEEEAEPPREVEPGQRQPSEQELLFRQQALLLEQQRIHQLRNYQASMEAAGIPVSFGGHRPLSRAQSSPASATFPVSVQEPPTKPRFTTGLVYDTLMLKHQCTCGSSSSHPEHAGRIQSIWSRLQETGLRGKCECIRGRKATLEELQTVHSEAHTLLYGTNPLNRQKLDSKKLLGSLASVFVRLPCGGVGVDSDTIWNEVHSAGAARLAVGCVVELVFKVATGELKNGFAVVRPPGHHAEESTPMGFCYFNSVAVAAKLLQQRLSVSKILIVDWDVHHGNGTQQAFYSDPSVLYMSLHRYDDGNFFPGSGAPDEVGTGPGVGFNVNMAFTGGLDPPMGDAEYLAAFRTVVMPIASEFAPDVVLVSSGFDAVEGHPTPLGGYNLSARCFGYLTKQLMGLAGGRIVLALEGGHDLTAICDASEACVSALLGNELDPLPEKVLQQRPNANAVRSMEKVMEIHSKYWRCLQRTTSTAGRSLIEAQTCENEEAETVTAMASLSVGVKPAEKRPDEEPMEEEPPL

| Structure (SMILES) | GI50 (MCF7) | IC50 (Histone deacetylase 9) | IC50 (Histone deacetylase 5) | inhibition [1] | GI50 (HepG2) | IC50 [2] | inhibition [3] | GI50 (HeLa) | inhibition [4] | IC50 (Histone deacetylase 8) | IC50 (Histone deacetylase 4) | IC50 (Histone deacetylase) | GI50 (K562) | IC50 (Histone deacetylase 1) |
| --- | --- | --- | --- | --- | --- | --- | --- | --- | --- | --- | --- | --- | --- | --- |
| O=C(CCCSC[C@H](NC(=O)OCc1ccccc1)C(=O)Nc1cccc2ccccc12)NO | 4.9 µM | > 0.2 µM | > 0.2 µM | Active | 4.5 µM | 0.0196 µM | Active | 4.3 µM | Active | > 0.2 µM | > 0.2 µM | 0.0724 µM | 2 µM | 0.15 µM |
| O=C(CCCSC[C@H](NC(=O)OCc1ccccc1)C(=O)Nc1ccccc1)NO | 4.7 µM | > 0.2 µM | > 0.2 µM | Active | 7.3 µM | 0.0206 µM | Active | 3.8 µM | Active | > 0.2 µM | > 0.2 µM | 0.0751 µM | 1.7 µM | 0.172 µM |
| O=C(CCCSC[C@H](NC(=O)c1ccccc1)C(=O)Nc1ccccc1)NO | 3.7 µM | > 0.2 µM | > 0.2 µM | Active | 6.2 µM | 0.0137 µM | Active | 4.1 µM | Active | > 0.2 µM | > 0.2 µM | 0.0527 µM | 1.4 µM | 0.198 µM |
